For this test, the target named is PDE10 (Homo sapiens (Human), UniProt Q9Y233). Kind of test: LE_PDE10A inhibition assay (scintillation proximity assay, cAMP hydrolysis). It counts as biochemical. The settings on record: SPA, 3H-cAMP substrate at Km 25 nM. As to the method:
LE_PDE10A Inhibition Assay:
The PDE10 inhibition assay in 384-well plates was conducted to identify substances for the inhibition of cyclic nucleotide hydrolysis by the PDE10 enzyme. […] PDE10 activity was measured using Scintillation Proximity Assay (SPA)-based methods. PDE10 catalyses the hydrolysis of the intracellular messenger adenosine […] (cAMP) to the non-cyclic adenosine 5′-monophosphate (AMP). The SPA assay was based upon the selective interaction of the tritiated product with yttrium oxide LEADseeker beads.
The assay buffer contained 25 mM HEPES pH 7.4, 2.5 mM Magnesium Chloride and 0.1% BSA. […] The reaction was terminated by adding 6 μL of 5 mg/mL of yttrium oxide LEADseeker beads. The beads were allowed to settle for 3 hours before plates were read in the LEEDSeaker for 6 minutes. The measured signal could be converted to activity relative to an […] control (100%). IC50 values were calculated by using in-house data software and IC50 values were generated by nonlinear regression analysis. (Bristol-Myers Squibb Company, Wallingford, Conn.).
A general note: In a scintillation proximity assay essentially only radioactivity close to the scintillant gives light.

The structures appear in SMILES notation. Counter-ions that a name gives are not always drawn. Like-named read-outs stand apart in the source and are kept apart here.

The term IC50 denotes the concentration at which inhibition is half-maximal.

PDE10, sequence (Q9Y233 whole entry): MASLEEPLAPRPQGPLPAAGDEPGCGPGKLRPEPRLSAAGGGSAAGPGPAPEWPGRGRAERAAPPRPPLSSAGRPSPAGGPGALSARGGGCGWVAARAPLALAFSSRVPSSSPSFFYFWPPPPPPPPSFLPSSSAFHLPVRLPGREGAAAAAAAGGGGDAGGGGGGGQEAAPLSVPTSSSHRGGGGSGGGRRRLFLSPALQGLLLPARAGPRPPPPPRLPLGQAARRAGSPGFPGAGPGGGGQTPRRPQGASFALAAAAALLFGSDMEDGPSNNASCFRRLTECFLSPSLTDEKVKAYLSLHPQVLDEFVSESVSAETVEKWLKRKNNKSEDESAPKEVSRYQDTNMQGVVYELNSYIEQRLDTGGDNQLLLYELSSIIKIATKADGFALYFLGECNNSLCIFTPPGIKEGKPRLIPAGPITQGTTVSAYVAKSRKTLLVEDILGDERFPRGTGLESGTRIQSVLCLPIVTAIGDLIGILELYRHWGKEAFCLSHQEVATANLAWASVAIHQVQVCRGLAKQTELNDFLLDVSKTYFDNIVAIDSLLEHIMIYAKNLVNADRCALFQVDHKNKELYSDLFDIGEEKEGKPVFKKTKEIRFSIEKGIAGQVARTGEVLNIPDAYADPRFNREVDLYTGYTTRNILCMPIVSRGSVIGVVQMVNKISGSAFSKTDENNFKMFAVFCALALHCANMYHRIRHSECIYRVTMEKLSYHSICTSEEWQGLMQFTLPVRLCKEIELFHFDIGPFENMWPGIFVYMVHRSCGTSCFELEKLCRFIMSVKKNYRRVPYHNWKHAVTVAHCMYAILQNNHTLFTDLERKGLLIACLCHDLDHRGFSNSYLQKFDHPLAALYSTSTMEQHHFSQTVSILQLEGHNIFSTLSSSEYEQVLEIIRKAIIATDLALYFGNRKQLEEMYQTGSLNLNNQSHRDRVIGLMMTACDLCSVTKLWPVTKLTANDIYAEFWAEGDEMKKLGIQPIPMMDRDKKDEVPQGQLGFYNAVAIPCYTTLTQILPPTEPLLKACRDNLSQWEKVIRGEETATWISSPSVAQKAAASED

As for `Cc1ncc(C)n2nc(-c3cc4nc(-c5ccccc5)cn4cc3N3CCCC3)nc12` [Example 17, 5,8-dimethyl-2-(2-phenyl-6-(pyrrolidin-1-yl)imidazo[1,2-a]pyridin-7-yl)-[1,2,4]triazolo[1,5-a]pyrazine], the IC50 is 3.5 nM (read-out: PDE10 IC50) and 1 to 100 nM (read-out: PDE10 IC50 (Range)).

`Cc1ncc(C)n2nc(-c3ccn4cc(-c5ccc(C#N)cc5)nc4c3)nc12` [Example 16, 4-(7-(5,8-dimethyl-[1,2,4]triazolo[1,5-a]pyrazin-2-yl)-imidazo[1,2-a]pyridin-2-yl)benzonitrile]: under “read-out: PDE10 IC50 (Range)”, the half-inhibitory concentration (IC50) was 1 to 100 nM.

With `Cc1nccn2nc(-c3ccn4cc(-c5ccccc5)nc4c3)nc12` [Example 19, 8-methyl-2-(2-phenylimidazo[1,2-a]pyridin-7-yl)-1,2,41-triazolo[1,5-a]pyrazine, 2 HCl], under “read-out: PDE10 IC50 (Range)”, the IC50 fell in the range of 1 to 100 nM.

As for `Cc1nccn2nc(-c3ccn4cc(-c5ccccn5)nc4c3)nc12` [Example 20, 8-methyl-2-(2-(pyridin-2-yl)imidazo[1,2-a]pyridin-7-yl)-[1,2,4]triazolo[1,5-a]pyrazine, 2 HCl], the IC50 (read-out: PDE10 IC50 (Range)) was 1 to 100 nM.

As for `Cc1nccn2nc(-c3ccn4cc(-c5cccc(C6CC6)c5)nc4c3)nc12` [Example 24, 2-(2-(3-cyclopropylphenyl)imidazo[1,2-a]pyridin-7-yl)-8-methyl-[1,2,4]triazolo[1,5-a]pyrazine], where the note is “read-out: PDE10 IC50 (Range)”, the IC50 was in the range of 1 to 100 nM.

Consider `Cc1ncc(C)n2nc(-c3ccn4cc(-c5ccccc5)nc4c3)nc12` [Example 1, 5,8-dimethyl-2-(2-phenylimidazo[1,2-a]pyridin-7-yl)-[1,2,4]triazolo[1,5-a]pyrazine], for which the IC50 (read-out: PDE10 IC50) stood at 0.1 nM.

For `Cc1nccn2nc(-c3ccn4cc(-c5cccc(Br)c5)nc4c3)nc12` [Example 23, 2-(2-(3-bromophenyl)imidazo[1,2-a]pyridin-7-yl)-8-methyl-[1,2,4]triazolo[1,5-a]pyrazine], the half-inhibitory concentration (IC50) (read-out: PDE10 IC50 (Range)) lay in the range of 1 to 100 nM.

`Cc1ncc(C)n2nc(-c3ccn4cc(-c5ccccn5)nc4c3)nc12` [Example 14, 5,8-dimethyl-2-(2-(pyridin-2-yl)imidazo[1,2-a]pyridin-7-yl)-[1,2,4]triazolo[1,5-a]pyrazine]: the IC50 (read-out: PDE10 IC50) was determined as 0.16 nM.

With `Cc1ncc(C)n2nc(-c3ccn4cc(-c5ccc(Cl)cc5)nc4c3)nc12` [Example 6, 2-(2-(4-chlorophenyl)imidazo[1,2-a]pyridin-7-yl)-5,8-dimethyl-[1,2,4]triazolo[1,5-a]pyrazine], the IC50 (read-out: PDE10 IC50 (Range)) was 1 to 100 nM.

Regarding `Cc1ncc(C)n2nc(-c3ccn4cc(-c5cnccn5)nc4c3)nc12` [Example 22, 5,8-dimethyl-2-(2-(pyrazin-2-yl)imidazo[1,2-a]pyridin-7-yl)-[1,2,4]triazolo[1,5-a]pyrazine], the IC50 (read-out: PDE10 IC50 (Range)) was 1 to 100 nM.

With `Cc1ncc(C)n2nc(-c3ccn4cc(-c5cccc(C6CC6)c5)nc4c3)nc12` [Example 26, 2-(2-(3-cyclopropylphenyl)imidazo[1,2-a]pyridin-7-yl)-5,8-dimethyl-1,2,41-triazolo[1,5-a]pyrazine], the 50% inhibitory concentration (IC50) (read-out: PDE10 IC50) is 0.33 nM.

For the molecule `Cc1nccn2nc(-c3ccn4c(C)c(-c5ccccc5)nc4c3)nc12` [Example 29, 8-methyl-2-(3-methyl-2-phenylimidazo[1,2-a]pyridin-7-yl)-[1,2,4]triazolo[1,5-a]pyrazine], the IC50 is 2.4 nM (read-out: PDE10 IC50) and 1 to 100 nM (read-out: PDE10 IC50 (Range)).

As to `Cc1ccc(-c2cn3ccc(-c4nc5c(C)ncc(C)n5n4)cc3n2)c(C)c1` [Example 7, 2-(2-(2,4-dimethylphenyl)imidazo[1,2-a]pyridin-7-yl)-5,8-dimethyl-[1,2,4]triazolo[1,5-a]pyrazine], the IC50 is 11 nM (read-out: PDE10 IC50) and 1 to 100 nM (read-out: PDE10 IC50 (Range)).

`Cc1ncc(C)n2nc(-c3ccn4cc(-c5cccc(N6CC[C@H](F)C6)c5)nc4c3)nc12` [Example 28, (S)-2-(2-(3-(3-fluoropyrrolidin-1-yl)phenyl)imidazo[1,2-a]pyridin-7-yl)-5,8-dimethyl-[1,2,4]triazolo[1,5-a]pyrazine]: the half-inhibitory concentration (IC50) (read-out: PDE10 IC50) was 0.16 nM.

`Cc1ncc(C)n2nc(-c3ccn4cc(C5CC5)nc4c3)nc12` [Example 21, 2-(2-cyclopropylimidazo[1,2-a]pyridin-7-yl)-5,8-dimethyl-[1,2,4]triazolo[1,5-a]pyrazine]: the IC50 is 26 nM (read-out: PDE10 IC50) and 1 to 100 nM (read-out: PDE10 IC50 (Range)).

The record behind these values is patent US8975276B2, “Inhibitors of PDE10” (Bristol-Myers Squibb Company, priority 2011, dated 2015).
